Experimental data published in ChEMBL document CHEMBL1201862, “PubChem BioAssay data set” (2004).
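Method: 48-hour compound exposure of cells in 96-well plates, five concentrations, linear interpolation of endpoints. GI50 is the concentration that inhibits growth by half.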 Calls of active or inactive are those of the source. No stated cut-off is given here; in the data, active = GI50 up to about 1.1 µM and inactive = higher.

Assays:
Assay in all cases: NCI-60 cell line screen, 48 h
LOX IMVI = system: LOX IMVI
MOLT-4 = system: MOLT-4
SK-MEL-5 = system: SK-MEL-5
UO-31 = system: UO-31
MDA-MB-231 = system: MDA-MB-231
A549 = system: A549
EKVX = system: EKVX
OVCAR-8 = system: OVCAR-8
SK-MEL-2 = system: SK-MEL-2
CCRF-CEM = system: CCRF-CEM
BT-549 = system: BT-549
786-0 = system: 786-0
HT-29 = system: HT-29
RXF 393 = system: RXF 393
OVCAR-5 = system: OVCAR-5
HCT-15 = system: HCT-15
K562 = system: K562
MCF7 = system: MCF7
Malme-3M = system: Malme-3M
SR = system: SR

Structure (SMILES)	GI50 (LOX IMVI)	GI50 (MOLT-4)	GI50 (SK-MEL-5)	GI50 (UO-31)	GI50 (MDA-MB-231)	GI50 (A549)	GI50 (EKVX)	GI50 (OVCAR-8)	GI50 (SK-MEL-2)	GI50 (CCRF-CEM)	GI50 (BT-549)	GI50 (786-0)	GI50 (HT-29)	GI50 (RXF 393)	GI50 (OVCAR-5)	GI50 (HCT-15)	GI50 (K562)	GI50 (MCF7)	GI50 (Malme-3M)	GI50 (SR)
CN(C)CCCOc1nc2c(c(=O)n(C)c(=O)n2C)n1C.SC1=NC=NC2=NC=NC12	0.303 µM (active)	0.43 µM (active)	11.1 µM (inactive)	3.73 µM (inactive)	1.69 µM (inactive)	22 µM (inactive)	33.7 µM (inactive)	22.2 µM (inactive)	6.52 µM (inactive)	2.17 µM (inactive)	11.3 µM (inactive)	2.41 µM (inactive)	5.2 µM (inactive)	> 100 µM (inactive)	23.4 µM (inactive)	3.14 µM	1.14 µM (inactive)	2.09 µM (inactive)	0.634 µM (active)	–
O=S(=O)(N/C(=N\O)Nc1ccc(Cl)cc1)c1cc(C(F)(F)F)cc(C(F)(F)F)c1	18.5 µM (inactive)	19 µM (inactive)	18 µM (inactive)	–	18.4 µM (inactive)	18.1 µM (inactive)	16.6 µM (inactive)	18.7 µM (inactive)	17.4 µM (inactive)	40.7 µM (inactive)	18.7 µM (inactive)	19.3 µM (inactive)	19 µM (inactive)	19 µM (inactive)	16.3 µM (inactive)	19.9 µM	29.9 µM (inactive)	–	18 µM (inactive)	–
O=C(NCCCCN(CCCNC(=O)C(F)(F)F)Cc1ccc2ccccc2c1)C(F)(F)F	14.1 µM (inactive)	24.2 µM (inactive)	19.2 µM (inactive)	8.04 µM (inactive)	16.7 µM (inactive)	30.4 µM (inactive)	16.4 µM (inactive)	16.9 µM (inactive)	–	> 10 µM (inactive)	17.1 µM (inactive)	15.6 µM (inactive)	13.7 µM (inactive)	17.5 µM (inactive)	17.2 µM (inactive)	17.3 µM	16.7 µM (inactive)	14.7 µM (inactive)	15.3 µM (inactive)	–
O=C(Cc1ccccc1)N/N=C(/CCN1CCCC1)CC(c1ccccc1)c1c(O)c2ccccc2oc1=O (centres undefined)	17.3 µM (inactive)	46.6 µM (inactive)	> 100 µM (inactive)	> 100 µM (inactive)	26 µM (inactive)	> 100 µM (inactive)	> 100 µM (inactive)	> 100 µM (inactive)	> 100 µM (inactive)	48.9 µM (inactive)	83.4 µM (inactive)	> 100 µM (inactive)	75.9 µM (inactive)	–	> 100 µM (inactive)	72.4 µM	> 100 µM (inactive)	22 µM (inactive)	57.4 µM (inactive)	21.4 µM (inactive)
CC1(C)CC(=O)C2=C(C1)NC(SCC(=O)O)=C(C#N)C2c1ccc(Br)cc1 (centres undefined)	> 100 µM (inactive)	–	> 100 µM (inactive)	4.56 µM (inactive)	> 100 µM (inactive)	> 100 µM (inactive)	> 100 µM (inactive)	> 100 µM (inactive)	> 100 µM (inactive)	> 100 µM (inactive)	> 100 µM (inactive)	> 100 µM (inactive)	> 100 µM (inactive)	> 100 µM (inactive)	> 100 µM (inactive)	> 100 µM	–	> 100 µM (inactive)	–	–
O=C(c1cc(Br)ccc1O)c1cc(Br)ccc1O	18.2 µM (inactive)	18.4 µM (inactive)	12.6 µM (inactive)	14.3 µM (inactive)	17.2 µM (inactive)	17.5 µM (inactive)	15.6 µM (inactive)	16.9 µM (inactive)	15.7 µM (inactive)	22.5 µM (inactive)	17.8 µM (inactive)	16.9 µM (inactive)	17.7 µM (inactive)	14.7 µM (inactive)	17.4 µM (inactive)	18.7 µM	15.3 µM (inactive)	16.8 µM (inactive)	17.3 µM (inactive)	–
CCN(CC(COc1ccc2c(c1)[n+]([O-])nc(N)[n+]2[O-])OC(C)=O)C(C)=O (centres undefined)	58.3 µM (inactive)	20.8 µM (inactive)	32 µM (inactive)	72.3 µM (inactive)	> 100 µM (inactive)	68.2 µM (inactive)	52.2 µM (inactive)	42.1 µM (inactive)	> 100 µM (inactive)	48.2 µM (inactive)	> 100 µM (inactive)	93.1 µM (inactive)	> 100 µM (inactive)	–	> 100 µM (inactive)	> 100 µM	14.1 µM (inactive)	> 100 µM (inactive)	–	> 100 µM (inactive)
CN(C)CC1CCC/C(=C\c2ccc(Cl)c(Cl)c2)C1=O (centres undefined)	–	1.44 µM (inactive)	9.82 µM (inactive)	2.74 µM (inactive)	4.65 µM (inactive)	15.1 µM (inactive)	10.8 µM (inactive)	3.18 µM (inactive)	6.52 µM (inactive)	0.843 µM (active)	2.33 µM (inactive)	1.75 µM (inactive)	8.45 µM (inactive)	–	21 µM (inactive)	2.41 µM	1.93 µM (inactive)	1.64 µM (inactive)	4.42 µM (inactive)	1.08 µM (active)
Cc1cc2oc(=O)c(Cl)c(Cl)c2c(C)c1Cl	2.76 µM (inactive)	2.1 µM (inactive)	6.93 µM (inactive)	12.7 µM (inactive)	11 µM (inactive)	15.7 µM (inactive)	14.8 µM (inactive)	3.28 µM (inactive)	4.44 µM (inactive)	2.83 µM (inactive)	7.26 µM (inactive)	3.15 µM (inactive)	4.78 µM (inactive)	2.84 µM (inactive)	12.1 µM (inactive)	3.5 µM	1.95 µM (inactive)	5.64 µM (inactive)	10.8 µM (inactive)	–
Clc1ccc2nc3c(c(-c4ccccc4)nn3-c3ccccc3)c(-c3ccccc3)c2c1	> 100 µM (inactive)	> 100 µM (inactive)	> 100 µM (inactive)	> 100 µM (inactive)	> 100 µM (inactive)	> 100 µM (inactive)	> 100 µM (inactive)	> 100 µM (inactive)	> 100 µM (inactive)	> 100 µM (inactive)	> 100 µM (inactive)	> 100 µM (inactive)	> 100 µM (inactive)	–	> 100 µM (inactive)	> 100 µM	> 100 µM (inactive)	> 100 µM (inactive)	> 100 µM (inactive)	> 100 µM (inactive)
[N-]=[N+]=Nc1ccc(NCCCCCC(=O)ON2C(=O)CCC2=O)c([N+](=O)[O-])c1	48.8 µM (inactive)	15.4 µM (inactive)	41.1 µM (inactive)	46.3 µM (inactive)	77.1 µM (inactive)	78.9 µM (inactive)	98.9 µM (inactive)	60.3 µM (inactive)	42.4 µM (inactive)	–	> 100 µM (inactive)	> 100 µM (inactive)	> 100 µM (inactive)	40.8 µM (inactive)	44.2 µM (inactive)	> 100 µM	22.4 µM (inactive)	> 100 µM (inactive)	27.9 µM (inactive)	–
COc1ccc(/C=C\c2cc(OC)c(OC)c(OC)c2)cc1OC(=O)CC(N)C(=O)O (centres undefined)	0.00254 µM (active)	0.00366 µM (active)	–	0.00759 µM (active)	0.00119 µM (active)	0.00449 µM (active)	34.8 µM (inactive)	0.00301 µM (active)	–	0.000418 µM (active)	0.00646 µM (active)	0.0111 µM (active)	0.865 µM (active)	0.00166 µM (active)	0.327 µM (active)	0.00258 µM	0.000321 µM (active)	0.00733 µM (active)	0.00258 µM (active)	0.00577 µM (active)
O=C(CSCC(=O)N/N=C\c1cc(Br)cc(Br)c1O)N/N=C\c1cc(Br)cc(Br)c1O	6.68 µM (inactive)	13 µM (inactive)	25 µM (inactive)	15.7 µM (inactive)	–	76.6 µM (inactive)	37.1 µM (inactive)	18.9 µM (inactive)	9.55 µM (inactive)	–	37.4 µM (inactive)	32.5 µM (inactive)	39.6 µM (inactive)	83.9 µM (inactive)	> 100 µM (inactive)	22.5 µM	21.9 µM (inactive)	44.8 µM (inactive)	14.4 µM (inactive)	15 µM (inactive)
COC(=O)c1sc(=S)sc1SCc1ccccc1CSc1sc(=S)sc1C(=O)OC	> 100 µM (inactive)	> 100 µM (inactive)	> 100 µM (inactive)	> 100 µM (inactive)	> 100 µM (inactive)	> 100 µM (inactive)	> 100 µM (inactive)	> 100 µM (inactive)	> 100 µM (inactive)	27.5 µM (inactive)	> 100 µM (inactive)	46.1 µM (inactive)	> 100 µM (inactive)	44.3 µM (inactive)	> 100 µM (inactive)	> 100 µM	38.5 µM (inactive)	> 100 µM (inactive)	> 100 µM (inactive)	–
Cc1ccc(C(=O)Nc2ccc(CP(=O)(O)O)cc2CP(=O)(O)O)cc1NC(=O)c1cccc(N)c1	> 100 µM (inactive)	> 100 µM (inactive)	> 100 µM (inactive)	> 100 µM (inactive)	> 100 µM (inactive)	> 100 µM (inactive)	> 100 µM (inactive)	> 100 µM (inactive)	> 100 µM (inactive)	> 100 µM (inactive)	> 100 µM (inactive)	> 100 µM (inactive)	> 100 µM (inactive)	> 100 µM (inactive)	> 100 µM (inactive)	> 100 µM	> 100 µM (inactive)	> 100 µM (inactive)	> 100 µM (inactive)	–
